From patent US20100215588A1, “THERAPEUTIC DELIVERY OF INHIBITORY NUCLEIC ACID MOLECULES TO THE RESPIRATORY SYSTEM” (priority 2007, published 2010)

Assay: I5NP siRNA concentration and non-compartmental pharmacokinetics in plasma after single oronasal inhalation (hybridisation assay)
Format: in vivo, cynomolgus monkeys
Conditions: for tmax: Treatment 1 (I5NP only), single oronasal inhalation; for AUC0-inf / AUC0-tlast / Cmax / Extrapolation (AUC0-inf − AUC0-tlast)/AUC0-inf × 100 / kel / t1/2 / tlast: Treatment 1, single oronasal inhalation
Method: Male cynomolgus monkeys were administered single oronasal inhalation doses of a nebulised aerosol formulation of fluorescent-labelled REDD14Cy3.5 and/or I5NP siRNAs. Following dosing, the concentration of I5NP in plasma, the non-compartmental disposition kinetics of I5NP in plasma, the qualitative distribution of REDD14Cy3.5 in lungs and the semi-quantitative distribution of I5NP in lungs were determined.
Three separate dose treatments were administered to the animals as detailed below. The theoretical inhalation achieved doses of siRNA were calculated from the respiratory minute volume (measured during pre-treatment), the aerosol concentration of the test article (measured gravimetrically during pre-treatment calibration of the nebuliser), the treatment time, the total aerosol depostion fraction (assumed as 100%) and the animal bodyweights on the day before each dose administration.
On Day 1 of the study, four of the available monkeys ([…]) were administered a target dose of 35 mg/kg of I5NP siRNA via an oronasal mask as a nebulized aerosol generated by the Aeroneb device. A 2.0 L/min dilution airflow was used. The total dose administered was calculated, based on the bodyweights and measured respiratory minute volumes of the animals, and on the achieved output of the Aeroneb device using the formulation concentration of 40 mg/mL. The administered dose was adjusted by changing the exposure times for the animals. Animals received treatment sequentially, rather than in parallel, using the single calibrated test Aeroneb.
On Day 35 of the Study, the three remaining main study animals (103 to 105) were administered a target dose of 35 mg/kg of I5NP siRNA via an oronasal mask as a nebulized aerosol generated by the Aeroneb device. A 2.0 L/min dilution airflow was used. The total dose administered was calculated, based on the bodyweights and measured respiratory minute volumes of the animals, and on the achieved output of the Aeroneb device using the formulation concentration of 40 mg/mL. The administered dose was adjusted by changing the exposure times for the animals.
A blood sample (0.5 mL) was collected at pre-dose, and at 15 minutes, 30 minutes, 1, 2, 4, 6, 8 and 24 hours post-end of inhalation, from the left or right femoral vein of each animal that received the full dose (101, 102, 103 and 106). Blood was collected into tubes with K3EDTA as the anticoagulant and then placed on wet ice pending centrifugation.
A blood sample (0.5 mL) was collected at pre-dose and at 15 minutes post-end of inhalation from all animals (103, 104 and 105). A third blood sample was collected at 6 h (animal 103), 24 h (animal 104) or 72 h (animal 105) post-end of inhalation. Blood was collected, into K3EDTA tubes, from the left or right femoral vein of each animal (103 to 105), and placed on wet ice pending centrifugation.
Blood was kept on wet ice until it was centrifuged, at 4° C. and 2700 rpm for approximately 10 minutes, to separate plasma (within 1 hour of collection). Plasma samples were separated, transferred to appropriately labeled vials and placed on dry ice prior to storage at approximately −80° C.
Following Treatments 1 and 3, plasma samples were analyzed for I5NP siRNA concentration at PCS-MTL according to a validated hybridization method.
Non-compartmental disposition kinetics in plasma was performed on concentration data from individual animals following Treatment 1. The following parameters were estimated as applicable:
All pharmacokinetic parameters were estimated using WinNonlin version 3.2 computer software.

[1] = Treatment 1, 8 hours post-end of dose
[2] = plasma, Treatment 1, mean of 4 animals

I5NP: exemplary p53 inhibiting siRNA; sense GAGAAUAUUUCACCCUUCA, antisense UGAAGGGUGAAAUAUUCUC (chemistry not given here)
highest mean concentration in plasma (Treatment 1, 15 minutes post-end of dosing, mean of 4 animals): 21.0 ± 5.01 ng/mL
mean plasma level [1]: 0.588 ± 0.561 ng/mL
plasma level as % of the Cmax value [1]: approximately 3%
plasma concentration (Treatment 1, 24 h post-end of dosing, animal 101): 0.205 ng/mL
plasma concentration (below limit of quantitation) (Treatment 1, after 8 h or 24 h post-end of dosing (at 24 h all animals other than 101)): < 0.10 ng/mL
absorption into the systemic circulation from the inhaled dose (Treatment 1, oronasal inhalation): rapid
mean plasma concentration (Treatment 3, 15 minutes post-end of dose): 40.3 ± 14.5 ng/mL
plasma level (Treatment 3, 6 h post-end of dose, animal 103): 11.1 ng/mL
plasma level (Treatment 3, 24 h post-end of dose, animal 104): 0.192 ng/mL
plasma concentration (less than limit of quantitation) (Treatment 3, 72 hours post-end of dosing, animal 105): < 0.10 ng/mL
tmax (plasma, animal 101): 0.5 h
tmax (plasma, animal 102): 0.5 h
tmax (plasma, animal 103): 0.42 h
tmax (plasma, animal 106): 0.42 h
AUC0-inf (plasma, animal 101): 72.0 ng·h/mL
AUC0-tlast (plasma, animal 101): 70.3 ng·h/mL
Cmax (plasma, animal 101): 26.3 ng/mL
Extrapolation (AUC0-inf − AUC0-tlast)/AUC0-inf × 100 (plasma, animal 101): 2.36%
kel (plasma, animal 101): 0.121 h⁻¹
t1/2 (plasma, animal 101): 5.74 h
tlast (plasma, animal 101): 24.25 h
AUC0-inf (plasma, animal 102): 27.3 ng·h/mL
AUC0-tlast (plasma, animal 102): 27.1 ng·h/mL
Cmax (plasma, animal 102): 18.0 ng/mL
Extrapolation (AUC0-inf − AUC0-tlast)/AUC0-inf × 100 (plasma, animal 102): 0.824%
kel (plasma, animal 102): 0.467 h⁻¹
t1/2 (plasma, animal 102): 1.48 h
tlast (plasma, animal 102): 8.25 h
AUC0-inf (plasma, animal 103): 46.8 ng·h/mL
AUC0-tlast (plasma, animal 103): 42.4 ng·h/mL
Cmax (plasma, animal 103): 24.0 ng/mL
Extrapolation (AUC0-inf − AUC0-tlast)/AUC0-inf × 100 (plasma, animal 103): 9.40%
kel (plasma, animal 103): 0.252 h⁻¹
t1/2 (plasma, animal 103): 2.75 h
tlast (plasma, animal 103): 8.17 h
AUC0-inf (plasma, animal 106): 16.1 ng·h/mL
AUC0-tlast (plasma, animal 106): 15.8 ng·h/mL
Cmax (plasma, animal 106): 15.6 ng/mL
Extrapolation (AUC0-inf − AUC0-tlast)/AUC0-inf × 100 (plasma, animal 106): 2.26%
kel (plasma, animal 106): 0.277 h⁻¹
t1/2 (plasma, animal 106): 2.50 h
tlast (plasma, animal 106): 8.17 h
mean AUC0-inf [2]: 40.6 ± 24.5 ng·h/mL
mean AUC0-tlast [2]: 38.9 ± 23.6 ng·h/mL
mean kel [2]: 0.279 ± 0.143 h⁻¹
mean t1/2 [2]: 3.12 ± 1.83 h
